Assay results reported in patent US20200386744A1, “NOVEL SCREENING METHOD FOR TGF-BETA INHIBITOR” (The Doshisha, priority 2017, published 2020).
Where a name gives a salt, the structure may show the parent alone. Read-outs that look alike come from different tables or passages of the source.

Experiments:
[1] = system: immortalized Fuchs' endothelial corneal dystrophy cells (iFECD); assay: Caspase 3/7 activity (Caspase-Glo 3/7 Assay) in iFECD under TGF-β2 stimulation, primary and secondary screening; format: cell-based, human; conditions: for activity at 10 µM: Homo sapiens
Protocol: 7×10^3 immortalized Fuchs' endothelial corneal dystrophy cells were seeded on a 96-well plate and were cultured for 24 hours under the condition of 5% CO2 at 37° C. Dulbecco's Modified Eagle Medium (DMEM) (nacalai tesque, 26252-94)+10% FBS (Biological Industries/04-001-1A)+1% penicillin-streptomycin (nacalai tesque, 26252-94) was used as the medium. Next, TGF-β2 (manufacturer: R&D Systems, Inc., distributor: Wako Pure Chemical Industries, Ltd./manufacturer codes 302-B2-002, 302-B2-010, distributor codes: 553-62881, 559-62883) (5 ng/mL) alone, or both TGF-β2 (5 ng/mL) and each agent of SCREEN-WELL® FDA Approved Drug Library V2, Japan version (10 μM) were added. After 28 hours under the condition of 5% CO2 at 37° C., cell morphology was observed using a phase difference microscope. Caspase 3/7 activity was then measured using Caspase-Glo 3/7 Assay (Promega, #G8091). DMEM+2% FBS+1% P/S was used as the medium. Caspase 3/7 activity and cell viability in this example were measured using Veritas™ Microplate Luminometer. Such a device enables many samples to be simultaneously measured.
The control group was supplemented with a solvent of each reagent, i.e., DMSO (Dimethyl Sulfoxide, Sterile-filtered) (nacalai tesque, 13408-64). Further, Z-VD-FMK (isomer mixture) (Wako Pure Chemical Industries, Ltd./262-02061) (10 μM), which is a caspase inhibitor, was used as the positive control. In the primary screening, measurement of Caspase 3/7 activity was carried out with n=2. […] Caspase activity was measured after being cultured in Dulbecco's Modified Eagle Medium (DMEM)+2% fetal bovine serum (FBS)+1% penicillin/streptomycin (P/S) for 28 hours.
Measurement was carried out with n=2 as the primary screening and a TGF-β2 (5 ng/mL) supplemented group was set as 100%. […] (1) and (2) of the control group, TGF-β2 (5 ng/mL) supplemented group, TGF-β2 (5 ng/mL)+Z-VD-FMK supplemented group (10 μM) are n=5 in total.
Evaluation of Caspase 3/7 activity was carried out with n=5 in the secondary screening.

[2] = system: immortalized Fuchs' endothelial corneal dystrophy cells (iFECD); assay: Cell viability (CellTiter-Glo Luminescent Cell Viability Assay) in iFECD, secondary screening; format: cell-based, human; conditions: agent 10 μM, absence of TGF-β; for Secondary screening Viable cell number (%): 28 hours, n=2, vs candidate compound non-contacted group
Protocol: In one embodiment, step (b) comprises measurement of cell viability. […] The cell viability is measured in the absence of TGF-β. […] The threshold value of the cell viability may be about 80%, about 85%, about 90%, about 95%, about 98%, about 99%, about 100%. […] Thus, a drug can be accurately selected by measuring cell number in addition to measuring caspase activity. Although the compounds shown in Table 2 appeared to be suppressing caspase activity, the compounds had strong toxicity, wherein cell viability went below 90%, and were thereby removed in the secondary screening.
Cell viability is calculated as an indicator of toxicity with n=2 in CellTiter-Glo® Luminescent Cell Viability Assay (Promega catalogue number: G7570). The cell viability was measured after culturing the cells in Dulbecco's Modified Eagle Medium (DMEM)+2% fetal bovine serum (FBS)+1% penicillin/streptomycin (P/S) for 28 hours. The cell viability was measured in the absence of TGF-β. When the cell viability was below 90%, the cells were removed from ranking.

[3] = 28 h, secondary screening Caspase 3/7 activity divided by cell viability, read-out: Caspase 3/7 activity/Viable cell number (%)
[4] = TGF-β2 5 ng/mL + agent 10 μM, 28 hours, n=2, TGF-β2 supplemented group set as 100%, read-out: Primary screening Caspase 3/7 activity (%)
[5] = TGF-β2 5 ng/mL + agent 10 μM, 28 hours, n=5, vs candidate compound non-contacted group, read-out: Secondary screening Caspase 3/7 activity (%)

Structure (SMILES)	Primary screening Caspase 3/7 activity (%) ([1]; TGF-β2 5 ng/mL + agent 10 μM, 28 hours, n=2, TGF-β2 supplemented group set as 100%)	Secondary screening Caspase 3/7 activity (%) ([1]; TGF-β2 5 ng/mL + agent 10 μM, 28 hours, n=5, vs candidate compound non-contacted group)	Caspase 3/7 activity/Viable cell number (%) ([1]; secondary screening Caspase 3/7 activity divided by cell viability)	Cell viability class mark (before Viable cell number) [2]	Secondary screening Viable cell number (%) [2] [%]	activity at 10 µM [1, 3] [%]	activity at 10 µM [1, 4] [%]	activity at 10 µM [1, 5] [%]
CCCC(=O)Nc1ccc(OCC(O)CNC(C)C)c(C(C)=O)c1.Cl (stereo not shown) [Acebutolol•HCl]	74.30	88.05	88.25	∘ (90% or more cell viability)	99.77	–	–	–
CN1CC2c3ccccc3Oc3ccc(Cl)cc3C2C1 (stereo not shown) [Asenapine Maleate]	–	–	–	∘ (90% or more cell viability)	101.64	87.4	72.8	88.8
COc1ccccc1OCCNCC(O)COc1cccc2[nH]c3ccccc3c12 (stereo not shown) [Carvedilol]	–	–	–	x (less than 90% cell viability)	89.1	71.9	50.3	64.1
O=C(O)c1ccc(-n2nc(-c3ccccc3O)nc2-c2ccccc2O)cc1 [Deferasirox]	–	–	–	x (less than 90% cell viability)	56.04	68.9	50	38.6
N#Cc1ccc(C(c2ccc(C#N)cc2)n2cncn2)cc1 [Letrozole]	–	–	–	∘ (90% or more cell viability)	101.3	102	71.2	104
Cc1[nH]c(=O)c(C#N)cc1-c1ccncc1 [Milrinone]	–	–	–	∘ (90% or more cell viability)	99.67	95.2	62.5	94.9
COc1c(C)c2c(c(O)c1C/C=C(\C)CCC(=O)OCCN1CCOCC1)C(=O)OC2 [Mycophenolate Mofetil]	–	–	–	x (less than 90% cell viability)	67.7	70.4	46.4	47.6
CC(=O)Oc1ccccc1C(=O)Nc1ncc([N+](=O)[O-])s1 [Nitazoxanide]	–	–	–	x (less than 90% cell viability)	87.81	49.3	36.5	43.3
CC[C@@H]1/C=C(\C)C[C@H](C)C[C@H](OC)[C@H]2O[C@@](O)(C(=O)C(=O)N3CCCC[C@H]3C(=O)O[C@H](/C(C)=C/[C@@H]3CC[C@H](Cl)[C@H](OC)C3)[C@H](C)[C@@H](O)CC1=O)[C@H](C)C[C@@H]2OC [Pimecrolimus]	–	–	–	x (less than 90% cell viability)	84.64	62.6	70.1	53
COc1cc(NC(C)CCCN)c2ncccc2c1 (stereo not shown) [Primaquine Phosphate]	–	–	–	∘ (90% or more cell viability)	99.7	–	–	–
CN(C)[C@@H]1C(O)=C(C(N)=O)C(=O)[C@@]2(O)C(O)=C3C(=O)c4c(O)cccc4[C@@](C)(O)[C@H]3C[C@@H]12 [Tetracycline]	–	–	–	∘ (90% or more cell viability)	99.31	94.3	60.1	93.7
